From patent publication US20260248879A1, “METHODS OF USING A GCG/GLP1 CO-AGONIST FOR THERAPY” (ELI LILLY AND COMPANY, priority 2022, published 2026)
“And” between values parts separate entries of the source, which are not always exact repeats. Identical values can stand only once. Like-named read-outs stand apart in the source and are kept apart here. Marks after values point to notes of the source that are not given here.

Tests used:
[1] = human, in vivo
From the text: (§1) Up to two samples may be collected at additional time points during the study if warranted and agreed upon between both the investigator and sponsor.
(§2) All available PK data is utilized for model development.

[2] = tested on: individuals with obesity; assay: Example 2 study: adverse events; type: in vivo, human
From the text: This study is designed to evaluate the safety, tolerability, PD and PK of dose to higher doses of Compound 1 in individuals with obesity. The Multiple Ascending Dose (MAD) study is a randomized, investigator- and participant-blind, placebo-controlled, multiple-ascending dose, single- or multi-site study conducted in individuals with obesity (i.e., females or males aged 18-70 years, inclusive, a BMI in the range of 27 kg/m^2 to 50 kg/m^2). Participants should have stable body weight for at least 3 months prior to the initiation of the study.
Dose of Compound 1 is assessed with weekly dosing over 20 weeks in 2 cohorts. Each cohort comprises 12 patients-nine patients are administered Compound 1 and three patients are administered placebo.
The dose for Cohort 1 is as follows: • 1.5 mg Compound 1 for 2 weeks; • 3.0 mg Compound 1 for 2 weeks; • 6.0 mg Compound 1 for 4 weeks; • 8.0 mg Compound 1 for 4 weeks; • 12.0 mg Compound 1 for 4 weeks; and • 16.0 mg Compound 1 for 4 weeks.
The dose for Cohort 2 is as follows: • 2.0 mg Compound 1 for 3 weeks; • 4.0 mg Compound 1 for 3 weeks; • 6.0 mg Compound 1 for 3 weeks; • 8.0 mg Compound 1 for 3 weeks; • 10.0 mg Compound 1 for 2 weeks; • 13.0 mg Compound 1 for 2 weeks, and • 16.0 mg Compound 1 for 4 weeks.
Safety parameters assessed during the study include: AEs (with special interest to GI AEs such as nausea, vomiting, and diarrhea), laboratory parameters, physical examinations/medical assessments, vital signs and ECGs, BW, injection site reactions, hypersensitivity reactions, and glucose monitoring (with special attention to hypoglycemia).

[3] = Example 1 study: pharmacokinetics, population PK modeling; conditions: for AUC(0-168)ss, geometric mean (CV %) / Cmax, ss, geometric mean: model-predicted steady state
From the text: as §1, §2

[4] = tested on: patients with T2DM; assay: Example 1 study: Mixed Meal Tolerance Test (MMTT); type: in vivo, human
Experimental: In respect of Cohort 1, the MMTT is performed at baseline and on Day 80. In respect of Cohort 2, the MMTT is performed at baseline and on Day 108.
Patients are provided breakfast meals for the MMTTs. Upon awakening, patients consume water to stay hydrated in order to mitigate problems with blood sample collections. Patients are provided individualized breakfast meals for the MMTTs. The total caloric content is approximately 30% of the daily estimated caloric need for weight. The macronutrient composition of the meals is targeted to provide approximately 50% of the calories from carbohydrate, 30% of the calories from fat, and 20% of the calories from protein. Patients are fasted (except for water) for at least 8 hours before each test meal and consume each meal within approximately 20 minutes. Test meals for each patient are kept consistent with respect to calorie and nutrient content across all MMTT assessments in the study.
For both parts of the study, the patient is not allowed to consume water (apart from fluid provided with the meal) for approximately 3 hours post MMTT until BOD POD® measurement.
While resident in the CRU, patients may not consume any food or caloric drinks other than that provided by the CRU. When not resident in the CRU, patients may resume their regular diet. The actual time of meal start and completion, total calories, and amount of meal (%) consumed in the MMTT are recorded.

[5] = Cohort 1, escalated to 4.5 mg, Day 80
[6] = Cohort 2, escalated to 10.0 mg, Day 108

CC(C)C[C@H](NC(=O)[C@H](CC(C)C)NC(=O)[C@H](Cc1c[nH]c2ccccc12)NC(=O)[C@H](CCC(=O)O)NC(=O)[C@@H](NC(=O)[C@H](Cc1ccccc1)NC(=O)[C@H](CCC(=O)O)NC(=O)[C@H](CCCCNC(=O)COCCOCCNC(=O)COCCOCCNC(=O)CC[C@H](NC(=O)CCCCCCCCCCCCCCCCCCC(=O)O)C(=O)O)NC(=O)[C@H](C)NC(=O)[C@H](CCCCN)NC(=O)[C@H](CCCCN)NC(=O)[C@H](CCC(=O)O)NC(=O)[C@H](CC(=O)O)NC(=O)[C@H](CC(C)C)NC(=O)[C@H](Cc1ccc(O)cc1)NC(=O)[C@H](CCCCN)NC(=O)[C@H](CO)NC(=O)[C@H](Cc1ccc(O)cc1)NC(=O)[C@H](CC(=O)O)NC(=O)[C@H](CO)NC(=O)[C@@H](NC(=O)[C@H](Cc1ccccc1)NC(=O)[C@@H](NC(=O)CNC(=O)[C@H](CCC(N)=O)NC(=O)C(C)(C)NC(=O)[C@@H](N)Cc1c[nH]cn1)[C@@H](C)O)[C@@H](C)O)C(C)C)C(=O)N[C@@H](CCC(=O)O)C(=O)NCC(=O)NCC(=O)N1CCC[C@H]1C(=O)N[C@@H](CO)C(=O)N[C@@H](CO)C(=O)NCC(N)=O [Compound 1]
t1/2, geomean (range) ([1]; 4.5 mg): 209 (117 to 362) h
t1/2, geomean (range) ([1]; 10 mg): 213 (129 to 366) h
Apparent clearance, CL/F, population mean estimate ([1]; sc): 0.0311 L/h
deaths ([2]; Example 2 study): No deaths occurred
most common treatment-emergent adverse events ([2]; in vivo): gastrointestinal in nature (nausea, vomiting, diarrhea)
serious adverse events ([2]; in vivo): No serious adverse events were observed
Vd/F ([3]; human, plasma, sc): 9.52 L
AUC(0-168)ss, geometric mean (CV %) ([3]; 4.5 mg QW): 106000 (22.5%) ng · h/mL
Cmax, ss, geometric mean ([3]; 4.5 mg QW): 698 ng/mL
AUC(0-168)ss, geometric mean (CV %) ([3]; 10 mg QW): 239000 (23.9%) ng · h/mL
Cmax, ss, geometric mean ([3]; 10 mg QW): 1570 ng/mL
Absorption rate constant, KA, population mean estimate ([3]; population PK model, 355 concentrations from 18 patients, SC QW): 0.0299 h⁻¹
C-peptide AUC(0-3 h) during MMTT, mean ([4]; Cohort 1 (1.5-4.5 mg QW), Day 80, baseline 4391.4): 5850.1 pmol·h/L
C-peptide AUC(0-3 h) during MMTT, change from baseline ([4]; Cohort 1, Day 80): 1474.6* pmol · h/L
Disposition index, change from baseline ([4]; Cohort 1, Day 80): −0.235
First PH ISI-S, change from baseline ([4]; Cohort 1, Day 80): 12090.422
Glucagon AUC(0-3 h) during MMTT, change from baseline ([4]; Cohort 1, Day 80): -32.50 pmol·h/L
Glucose AUC(0-3 h) during MMTT, change from baseline ([4]; Cohort 1, Day 80): -14.37 mmol·h/L
HOMA2-B, change from baseline ([4]; Cohort 1, Day 80): 22.971
HOMA2-IR, change from baseline ([4]; Cohort 1, Day 80): −0.434
ISI-M (Matsuda Index), change from baseline ([4]; Cohort 1, Day 80): 0.237
MMTT glucose AUC 0-3 hours, approximate decrease from baseline ([4]; Cohort 1, Day 80): ~40%
Oxyntomodulin AUC(0-3 h) during MMTT, change from baseline ([4]; Cohort 1, Day 80): -41.594 pmol·h/L
Second PH ISI-S, change from baseline ([4]; Cohort 1, Day 80): 2273.29
Disposition index, mean ([4]; Cohort 1, Day 80, baseline 1.033): 0.642
ISI-M (Matsuda Index), mean ([4]; Cohort 1, Day 80, baseline 3.568): 3.567
HOMA2-IR, mean ([4]; Cohort 1, Day 80, baseline 4.704): 4.271
HOMA2-B, mean ([4]; Cohort 1, Day 80, baseline 15.791): 38.762
Glucose AUC(0-3 h) during MMTT, mean ([4]; Cohort 1, Day 80, baseline 43.06): 25.76 mmol·h/L and 25.72 mmol·h/L
Glucagon AUC(0-3 h) during MMTT, mean ([4]; Cohort 1, Day 80, baseline 64.98): 27.93 pmol·h/L
Oxyntomodulin AUC(0-3 h) during MMTT, mean ([4]; Cohort 1, Day 80, baseline 89.822): 58.042 pmol·h/L
Second PH ISI-S (second phase Stumvoll Index), mean ([4]; Cohort 1, Day 80, baseline −6253.26): −3634.241
First PH ISI-S (first phase Stumvoll Index), mean ([4]; Cohort 1, Day 80, baseline −33534.1): −19605.805
MMTT C-peptide AUC 0-3 hours, approximate increase from baseline [4, 5]: ~33%
MMTT glucagon AUC 0-3 hours, approximate decrease from baseline [4, 5]: ~57%
MMTT insulin AUC 0-3 hours, approximate increase from baseline [4, 5]: ~51%
Matsuda index (ISI-M) versus baseline [4, 5]: no change from baseline
MMTT insulin mean area under the curve 0-3 hours ([4]; Cohort 1, escalated to 4.5 mg, Day 80, baseline 125.233): 189.435 h*mIU/L
C-peptide AUC(0-3 h) during MMTT, mean ([4]; Cohort 2 (2-10 mg QW), Day 108, baseline 3604.1): 3147.4 pmol·h/L
C-peptide AUC(0-3 h) during MMTT, change from baseline ([4]; Cohort 2, Day 108): -897.4 pmol·h/L
Disposition index, change from baseline ([4]; Cohort 2, Day 108): −0.198
First PH ISI-S (first phase Stumvoll Index), mean ([4]; Cohort 2, Day 108): −19372.347
First PH ISI-S, change from baseline ([4]; Cohort 2, Day 108): 11985.334
Glucagon AUC(0-3 h) during MMTT, change from baseline ([4]; Cohort 2, Day 108): -40.55 pmol·h/L
Glucose AUC(0-3 h) during MMTT, change from baseline ([4]; Cohort 2, Day 108): -15.73 mmol·h/L
HOMA2-B, change from baseline ([4]; Cohort 2, Day 108): 3.824
HOMA2-IR, change from baseline ([4]; Cohort 2, Day 108): −1.071
ISI-M (Matsuda Index), change from baseline ([4]; Cohort 2, Day 108): 5.905
Oxyntomodulin AUC(0-3 h) during MMTT, change from baseline ([4]; Cohort 2, Day 108): -49.843 pmol·h/L
Second PH ISI-S, change from baseline ([4]; Cohort 2, Day 108): 2252.292
Disposition index, mean ([4]; Cohort 2, Day 108, baseline 1.276): 1.265
HOMA2-IR, mean ([4]; Cohort 2, Day 108, baseline 2.7): 1.325
ISI-M (Matsuda Index), mean ([4]; Cohort 2, Day 108, baseline 4.616): 10.7
HOMA2-B, mean ([4]; Cohort 2, Day 108, baseline 9.108): 12.077
Glucose AUC(0-3 h) during MMTT, mean ([4]; Cohort 2, Day 108, baseline 38.27): 23.74 mmol·h/L
Glucagon AUC(0-3 h) during MMTT, mean ([4]; Cohort 2, Day 108, baseline 39.89): 7.61 pmol·h/L
Oxyntomodulin AUC(0-3 h) during MMTT, mean ([4]; Cohort 2, Day 108, baseline 124.741): 66.077 pmol·h/L
Second PH ISI-S (second phase Stumvoll Index), mean ([4]; Cohort 2, Day 108, baseline −5889.19): −3593.001
MMTT C-peptide AUC 0-3 hours, approximate decrease from baseline [4, 6]: ~13%
MMTT glucagon AUC 0-3 hours, approximate decrease from baseline [4, 6]: ~81%
MMTT glucose AUC 0-3 hours, approximate decrease from baseline [4, 6]: ~38%
MMTT insulin AUC 0-3 hours, approximate decrease from baseline [4, 6]: ~10%
Matsuda index (ISI-M), approximate increase from baseline [4, 6]: approximately 132%
MMTT insulin area under the curve 0-3 hours ([4]; Cohort 2, escalated to 10.0 mg, Day 108, baseline 77.692): 69.847 h*mIU/L
sMMTT total cholesterol levels ([4]; Cohort 2 doses (FIG. 7b)): substantially reduced
sMMTT HDL cholesterol levels ([4]; Cohort 2 doses (FIG. 7e)): substantially reduce
sMMTT LDL cholesterol levels ([4]; Cohort 2 doses (FIG. 7f)): substantially reduce
sMMTT triglyceride levels ([4]; Cohort 2 doses (FIG. 7h)): substantially reduce
reduction of glucagon secretion from baseline in response to mixed meals ([4]; dose up to 4.5 mg): greater than 50%
reduction of glucagon secretion from baseline in response to mixed meals ([4]; dose up to 10 mg): greater than 80%
